Experimental data: article PMC10436262, “Structure-Based Design of Inhibitors of the m^6A-RNA Writer Enzyme METTL3” (ACS Bio & Med Chem Au, 2023)

What was measured:
METTL1 = METTL1 (Homo sapiens, UniProt Q9UBP6); assay: Thermal shift assay; type: binding
Description: (§1) METTL1 mediates the formation of N7-methylguanine in a subset of RNA species, such as tRNAs, mRNAs, and microRNAs, whereas METTL16 is able to N6-methylate a subset of mRNAs and U6 small nuclear RNAs.[23],[24] The co-product of methyl transfer catalysis, S-adenosyl-L-homocysteine (SAH), was used as a positive control in the thermal shift assay. […] Compound 54 at 200 μM was able to shift the melting curve of METTL3/METTL14 by 1.8 °C compared to the DMSO control (Figure S4).
(§2) The protein sample was buffered in 25 mM HEPES (pH 7.4) and 150 mM NaCl and assayed in a 96-well plate at a final concentration of 2 μM in 20 μL volume. The SYPRO Orange dye was added as a fluorescence probe at a dilution of 1:1000. The compound 54 concentrations tested were 10, 50, 100, and 200 μM, while the SAH concentrations tested were 100, 500, 1000, and 2000 μM. The temperature was raised with a step of 0.5 °C starting from 20 to 80 °C, and fluorescence readings were taken at each interval. The reported values (ΔTm) are calculated as the difference between the transition midpoints of an individual sample and the average of the reference wells (containing the protein and the DMSO only) in the same plate. The DMSO concentration was kept at 1% (v/v).

METTL16 = molecular target: T1, METTL16 (Homo sapiens, UniProt Q86W50); assay: Thermal shift assay; type: binding
T1 sequence (Q86W50 1-562): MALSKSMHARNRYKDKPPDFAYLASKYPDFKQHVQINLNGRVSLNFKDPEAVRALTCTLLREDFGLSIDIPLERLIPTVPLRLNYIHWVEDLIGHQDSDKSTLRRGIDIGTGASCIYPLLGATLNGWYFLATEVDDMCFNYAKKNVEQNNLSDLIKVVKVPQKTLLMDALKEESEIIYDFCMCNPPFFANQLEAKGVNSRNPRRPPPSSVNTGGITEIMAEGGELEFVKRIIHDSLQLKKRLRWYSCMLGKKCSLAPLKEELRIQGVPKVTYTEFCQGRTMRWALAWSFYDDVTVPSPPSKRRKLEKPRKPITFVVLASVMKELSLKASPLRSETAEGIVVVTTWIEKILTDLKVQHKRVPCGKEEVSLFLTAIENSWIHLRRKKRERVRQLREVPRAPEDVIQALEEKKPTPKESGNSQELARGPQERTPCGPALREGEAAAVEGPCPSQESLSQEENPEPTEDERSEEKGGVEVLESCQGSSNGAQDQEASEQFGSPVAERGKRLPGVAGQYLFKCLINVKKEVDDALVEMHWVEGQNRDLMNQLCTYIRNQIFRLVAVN
Description: as §1, §2

METTL3/METTL14 [1] = molecular target: T2, METTL3/METTL14 (Homo sapiens, UniProt Q86U44); assay: Thermal shift assay; type: binding; details: vs DMSO control
T2 construct: made in house; host or cells: Sf9 insect cells (baculovirus)
Description: as §1, §2

[2] = test system: m^6A/A level in MOLM-13 cells; set-up: method as in PMID 34237194; details: read-out: IC50 for m^6A/A reduction; cited from earlier work
METTL3/METTL14 [3] = molecular target: T2, METTL3/METTL14; assay: METTL3 enzymatic inhibition assay by homogeneous time-resolved fluorescence (HTRF); type: biochemical; details: for IC50: HTRF assay, racemic mixture, read-out: IC50
Description: Compound potencies were evaluated by using a previously reported METTL3 inhibition assay. […] Tested compounds that inhibit METTL3 decrease the m^6A level and thus reduce the HTRF signal. The biochemical assay was performed, as described previously.[19] The IC50 values derived from fitting a dose–response curve to the data using nonlinear regression. The IC50 values are given as an average of at least two independent measurements for each compound in the text.

MOLM-13 cells = assay: Antiproliferative activity / cytotoxicity (GI50), CellTiter-Glo; type: cell-based
Description: We then decided to evaluate the cellular potency of inhibitor 54. The antiproliferative activity on MOLM-13, which is an acute myeloid leukemia cell line, was measured using a previously published protocol with a 3-day incubation time.[10]
MOLM-13 cells were cultured in RPMI 1640 medium containing 10% Gibco FBS and 1% penicillin/streptomycin (complete medium) in 5% CO2 at 37 °C in a humidified incubator, with maintained cell densities at 0.6–2 × 10^6 cells/mL.
Cells were seeded in white clear-bottom 96-well plates at a density of 2 × 10^4 cells/well in 50 μL of the complete RPMI medium and treated with 50 μL increasing concentrations of compound 54 dissolved in DMSO (final concentration of compounds 1.25–160 μM) or DMSO only (0.5% (v/v)) as a negative control and incubated for 72 h at 37 °C with 5% CO2. Cell viability was determined using a CellTiter-Glo luminescent cell viability assay (Promega G7570) based on the detection of ATP according to the manufacturer’s instructions. […] The luminescence was recorded using a Tecan Infinite […] M1000 microplate reader from the top. The background luminescence value was obtained from wells containing the CellTiter-Glo reagent and medium without cells. Cell viability curves were plotted in GraphPad Prism 9 and fitted with nonlinear regression, from which GI50 values were determined.

[4] = SAH at 2000 μM, vs DMSO control

T2 sequence (Q86U44 whole entry): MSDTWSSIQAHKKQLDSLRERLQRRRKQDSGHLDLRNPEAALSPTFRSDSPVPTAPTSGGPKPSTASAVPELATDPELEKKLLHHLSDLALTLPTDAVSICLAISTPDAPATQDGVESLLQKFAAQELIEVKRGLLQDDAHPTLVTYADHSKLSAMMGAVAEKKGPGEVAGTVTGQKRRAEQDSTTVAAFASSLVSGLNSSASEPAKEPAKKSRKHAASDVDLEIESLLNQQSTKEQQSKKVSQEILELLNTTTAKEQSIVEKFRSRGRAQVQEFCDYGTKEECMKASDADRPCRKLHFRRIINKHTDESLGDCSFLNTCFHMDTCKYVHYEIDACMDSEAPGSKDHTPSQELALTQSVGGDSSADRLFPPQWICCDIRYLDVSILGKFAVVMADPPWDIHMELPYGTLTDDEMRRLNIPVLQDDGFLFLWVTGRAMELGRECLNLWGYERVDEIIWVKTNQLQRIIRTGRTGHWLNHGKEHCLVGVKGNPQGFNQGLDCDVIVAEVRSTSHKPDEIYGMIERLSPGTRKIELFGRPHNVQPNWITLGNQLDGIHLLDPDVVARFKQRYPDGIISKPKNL
T2 sequence (Q9HCE5 whole entry partner): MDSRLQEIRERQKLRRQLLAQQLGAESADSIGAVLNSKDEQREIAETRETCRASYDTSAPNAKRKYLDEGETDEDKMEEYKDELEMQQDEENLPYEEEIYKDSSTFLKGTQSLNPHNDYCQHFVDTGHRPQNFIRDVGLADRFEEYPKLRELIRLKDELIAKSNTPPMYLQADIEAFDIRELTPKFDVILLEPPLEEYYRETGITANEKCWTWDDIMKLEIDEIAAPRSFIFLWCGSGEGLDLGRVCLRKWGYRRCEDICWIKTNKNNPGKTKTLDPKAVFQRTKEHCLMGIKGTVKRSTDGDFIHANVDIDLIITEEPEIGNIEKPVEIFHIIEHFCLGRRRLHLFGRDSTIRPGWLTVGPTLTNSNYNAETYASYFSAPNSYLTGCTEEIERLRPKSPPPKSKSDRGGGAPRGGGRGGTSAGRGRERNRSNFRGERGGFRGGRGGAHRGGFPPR
Chain of METTL1 (Q9UBP6 whole entry, species assumed): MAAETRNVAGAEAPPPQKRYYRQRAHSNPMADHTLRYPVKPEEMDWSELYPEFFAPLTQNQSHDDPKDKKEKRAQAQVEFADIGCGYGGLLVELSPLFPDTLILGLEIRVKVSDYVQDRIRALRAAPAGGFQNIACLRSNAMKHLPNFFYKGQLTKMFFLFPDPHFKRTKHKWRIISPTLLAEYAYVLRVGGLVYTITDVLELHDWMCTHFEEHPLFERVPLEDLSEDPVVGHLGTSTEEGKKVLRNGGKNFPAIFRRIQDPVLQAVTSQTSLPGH

Compound `Nc1ncnc2c1ncn2[C@@H]1O[C@H](CSCC[C@H](N)C(=O)O)[C@@H](O)[C@H]1O` [SAH, S-adenosyl-L-homocysteine, reference compound] has a ΔTm (METTL1; [4]) of 8.75 °C, a ΔTm (METTL16; [4]) of 2.5 °C and a ΔTm (METTL3/METTL14 [1]; SAH at 2000 μM) of 4.05 °C.

In the case of `CC1(C)CCN(Cc2ccc(C(=O)NC[C@]3(O)CCCN(c4cc(NCc5ccccc5)ncn4)C3)c(O)c2)CC1` [UZH1a], the IC50 [2] is listed as 4600 nM.

`O=C(NCC1(O)CCCN(c2cc(NCc3ccccc3)ncn2)C1)c1ccc(CN2CC3(CCC3)C2C2CC2)cc1O` (stereo not drawn) [compound 53] showed an IC50 (METTL3/METTL14 [3]) of 840 nM.

With `CC(C)C1N(Cc2ccc3c(NCC4(O)CCCN(c5cc(NCc6ccccc6)ncn5)C4)cccc3c2)CC12CCC2` (stereo not drawn) [compound 54, 1-(6-(benzylamino)pyrimidin-4-yl)-3-(((6-((1-isopropyl-2-azaspiro[3.3]heptan-2-yl)methyl)naphthalen-1-yl)amino)methyl)piperidin-3-ol] the GI50 (MOLM-13 cells; Homo sapiens, MOLM-13, 3-day (72 h) incubation, average of two biological replicates) was 6000 nM, the “factor by which cellular GI50 is higher than biochemical IC50” value (MOLM-13 cells; MOLM-13 GI50 vs HTRF IC50) was “about 100” and the “ΔTm (shift of melting curve)” value (METTL1; compound up to 200 μM) was “No shift”. For the same compound, the “ΔTm (shift of melting curve)” value (METTL16; compound up to 200 μM) was “No shift”, the ΔTm at 200 µM (METTL3/METTL14 [1]; compound at 200 μM, read-out: ΔTm (shift of melting curve)) was 1.8 °C and the IC50 (METTL3/METTL14 [3]) was 54 nM. The “fold improvement in affinity (IC50) vs compound 46” value (METTL3/METTL14 [3]; matched pair 46:54) was 6.7 fold.
